In patent US8471005B2 (Cephalon, Inc., priority 2008, dated 2013) one finds IC50 data, which are given here for 21 compounds.

pIC50: −log10 of the molar value.

One test concerns the target T1, ALK (Homo sapiens, UniProt Q9UM73).
T1 construct: host or cells: baculovirus expression system
Briefly: ALK Kinase Assay (ELISA/TRF, PLC-γ substrate). The test is classed as biochemical. Conditions: ALK kinase inhibition, 1 μM ATP; read-out: ALK Potency. Put shortly: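 Time-resolved fluorescence ELISA using Eu-N1 PT66 antibody to detect phosphorylated PLC-γ (coated at 10 μg/mL). Enzyme at 30 ng/ml ALK; 15 min incubation, 37° C.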

A further test deals with T2, JAK2 (Homo sapiens, UniProt O60674).
T2 construct: host or cells: baculovirus expression system
Briefly: Recombinant Human JAK2 Kinase Assay (TRF). The test is classed as biochemical. Conditions: JAK2 kinase inhibition, 0.2 μM ATP; read-out: JAK2 Potency. Put shortly: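 TRF read-out: Eu-N1 PY100 anti-phosphotyrosine antibody detects product. Enzyme is baculovirus-expressed JAK2 at 15 ng/ml; substrate is a biotinyl 15-mer peptide bound to Neutravidin-coated wells. Buffer 20 mM HEPES pH 7.2, 0.2 μM ATP, 1 mM MnCl2, 0.1% BSA, 2.5% DMSO final; 20 min, RT.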

T2 sequence (O60674 whole entry): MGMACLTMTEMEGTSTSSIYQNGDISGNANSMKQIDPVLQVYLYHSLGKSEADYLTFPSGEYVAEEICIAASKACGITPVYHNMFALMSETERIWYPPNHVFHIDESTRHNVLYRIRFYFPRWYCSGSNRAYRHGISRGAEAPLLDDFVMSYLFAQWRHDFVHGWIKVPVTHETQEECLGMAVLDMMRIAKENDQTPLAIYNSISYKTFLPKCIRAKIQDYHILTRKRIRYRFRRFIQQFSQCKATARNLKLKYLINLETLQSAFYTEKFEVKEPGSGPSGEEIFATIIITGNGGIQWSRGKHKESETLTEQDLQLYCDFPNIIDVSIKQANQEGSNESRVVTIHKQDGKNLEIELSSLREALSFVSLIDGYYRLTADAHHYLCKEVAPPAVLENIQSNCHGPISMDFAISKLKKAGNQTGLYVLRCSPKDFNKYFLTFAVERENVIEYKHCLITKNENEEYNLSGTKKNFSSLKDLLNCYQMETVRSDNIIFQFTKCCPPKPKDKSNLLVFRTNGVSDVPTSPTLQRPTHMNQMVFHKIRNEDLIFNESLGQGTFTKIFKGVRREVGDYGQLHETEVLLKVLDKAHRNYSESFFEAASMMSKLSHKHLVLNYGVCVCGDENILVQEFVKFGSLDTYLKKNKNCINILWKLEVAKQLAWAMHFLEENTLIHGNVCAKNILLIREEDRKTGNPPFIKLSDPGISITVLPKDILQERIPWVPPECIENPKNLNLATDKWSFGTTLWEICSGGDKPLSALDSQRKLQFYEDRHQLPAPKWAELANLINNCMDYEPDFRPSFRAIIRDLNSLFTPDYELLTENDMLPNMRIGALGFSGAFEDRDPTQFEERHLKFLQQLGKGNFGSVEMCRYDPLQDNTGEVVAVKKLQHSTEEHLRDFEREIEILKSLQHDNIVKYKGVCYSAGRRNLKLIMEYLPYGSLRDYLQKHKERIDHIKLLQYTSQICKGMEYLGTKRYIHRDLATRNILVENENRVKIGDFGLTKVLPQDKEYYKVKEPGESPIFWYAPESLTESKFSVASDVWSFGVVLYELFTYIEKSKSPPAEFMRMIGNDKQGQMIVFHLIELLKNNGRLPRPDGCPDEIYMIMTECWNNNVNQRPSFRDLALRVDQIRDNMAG
T1 sequence (Q9UM73 19-1620): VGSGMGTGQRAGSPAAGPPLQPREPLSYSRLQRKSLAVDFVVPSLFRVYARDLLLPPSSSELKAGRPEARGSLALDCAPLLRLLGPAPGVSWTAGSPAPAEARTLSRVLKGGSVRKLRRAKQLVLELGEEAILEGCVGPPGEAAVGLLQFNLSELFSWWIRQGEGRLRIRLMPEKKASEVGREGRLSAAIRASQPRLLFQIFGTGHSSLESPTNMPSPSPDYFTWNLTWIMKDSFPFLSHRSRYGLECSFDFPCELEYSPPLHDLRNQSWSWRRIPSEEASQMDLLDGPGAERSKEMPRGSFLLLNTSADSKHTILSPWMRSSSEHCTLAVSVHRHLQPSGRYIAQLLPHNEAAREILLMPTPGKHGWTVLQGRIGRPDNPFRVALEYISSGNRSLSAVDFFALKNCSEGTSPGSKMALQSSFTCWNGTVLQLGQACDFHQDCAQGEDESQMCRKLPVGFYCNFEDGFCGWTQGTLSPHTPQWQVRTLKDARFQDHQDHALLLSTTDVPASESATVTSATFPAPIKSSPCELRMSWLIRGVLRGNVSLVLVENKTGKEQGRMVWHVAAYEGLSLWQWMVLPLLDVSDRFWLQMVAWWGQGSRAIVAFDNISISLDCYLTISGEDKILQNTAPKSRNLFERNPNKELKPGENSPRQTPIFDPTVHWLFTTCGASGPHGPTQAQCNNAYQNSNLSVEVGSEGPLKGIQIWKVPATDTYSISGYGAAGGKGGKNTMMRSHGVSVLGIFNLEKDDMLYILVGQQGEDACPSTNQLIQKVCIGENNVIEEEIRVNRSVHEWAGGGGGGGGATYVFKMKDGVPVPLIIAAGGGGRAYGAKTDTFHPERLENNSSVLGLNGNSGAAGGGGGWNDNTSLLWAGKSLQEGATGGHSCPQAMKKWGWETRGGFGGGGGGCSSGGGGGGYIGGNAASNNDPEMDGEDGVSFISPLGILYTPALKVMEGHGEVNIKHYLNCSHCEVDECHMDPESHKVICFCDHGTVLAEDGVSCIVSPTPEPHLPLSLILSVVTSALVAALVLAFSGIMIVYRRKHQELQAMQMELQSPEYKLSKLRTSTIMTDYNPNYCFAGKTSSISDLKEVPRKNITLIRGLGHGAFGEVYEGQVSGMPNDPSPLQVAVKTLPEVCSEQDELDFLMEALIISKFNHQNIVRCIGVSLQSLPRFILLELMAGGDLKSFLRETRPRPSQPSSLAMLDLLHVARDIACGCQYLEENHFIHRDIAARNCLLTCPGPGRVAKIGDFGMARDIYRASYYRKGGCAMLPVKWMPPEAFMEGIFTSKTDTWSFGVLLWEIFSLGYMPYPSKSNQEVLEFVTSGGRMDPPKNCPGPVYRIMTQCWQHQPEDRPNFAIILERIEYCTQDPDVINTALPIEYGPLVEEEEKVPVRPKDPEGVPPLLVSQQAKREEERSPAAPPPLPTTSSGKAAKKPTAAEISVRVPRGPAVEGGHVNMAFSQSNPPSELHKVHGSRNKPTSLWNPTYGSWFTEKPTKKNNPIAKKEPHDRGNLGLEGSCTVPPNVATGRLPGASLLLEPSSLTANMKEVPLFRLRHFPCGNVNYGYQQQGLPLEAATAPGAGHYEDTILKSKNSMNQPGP

For `CC(=O)N1CCc2ccc(Nc3ncc4ccc(-c5cccc(S(=O)(=O)N6CC[C@H](O)C6)c5)n4n3)cc21` [Example 885, 1-(6-{7-[3-((S)-3-Hydroxy-pyrrolidine-1-sulfonyl)-phenyl]-pyrrolo[2,1-f][1,2,4]triazin-2-ylamino}-2,3-dihydro-indol-1-yl)-ethanone], the pIC50 at ALK is 5.00 to 6.00; at JAK2 it was above 7.00.

Regarding `CC(=O)Nc1cccc(Nc2ncc3ccc(-c4cccc(C(=O)NC(C)(C)C)c4)n3n2)c1` [Example 886, 3-[2-(3-Acetylamino-phenylamino)-pyrrolo[2,1-f][1,2,4]triazin-7-yl]-N-tert-butyl-benzamide], the results for the pIC50 at ALK and on JAK2 were 5.00 to 6.00 and above 7.00, respectively.

Regarding `CC(=O)N1CCc2ccc(Nc3ncc4ccc(-c5cccc(C(=O)NC(C)(C)C)c5)n4n3)cc21` [Example 887, 3-[2-(1-Acetyl-2,3-dihydro-1H-indol-6-ylamino)-pyrrolo[2,1-f][1,2,4]triazin-7-yl]-N-tert-butyl-benzamide], the figures for the pIC50 on ALK and at JAK2 were below 5.00 and 6.00 to 7.00, respectively.

In the case of `CC(=O)Nc1cc(Nc2ncc3ccc(-c4cccc(S(=O)(=O)NC(C)(C)C)c4)n3n2)ccc1Cl` [Example 888, N-{5-[7-(3-tert-Butylsulfamoyl-phenyl)-pyrrolo[2,1-f][1,2,4]triazin-2-ylamino]-2-chloro-phenyl}-acetamide], the pIC50 at ALK was 6.00 to 7.00; at JAK2, above 7.00.

With `CC(C)(C)NS(=O)(=O)c1cccc(-c2ccc3cnc(Nc4cccc(NS(C)(=O)=O)c4)nn23)c1` [Example 889, N-tert-Butyl-3-[2-(3-methanesulfonylamino-phenylamino)-pyrrolo[2,1-f][1,2,4]triazin-7-yl]-benzenesulfonamide], the pIC50 was 6.00 to 7.00 at ALK and above 7.00 on JAK2.

In the case of `CCOC(=O)c1cccc(Nc2ncc3ccc(-c4cccc(S(=O)(=O)NC(C)(C)C)c4)n3n2)c1` [Example 890, 3-[7-(3-tert-Butylsulfamoyl-phenyl)-pyrrolo[2,1f][1,2,4]triazin-2-ylamino]-benzoic acid ethyl ester], the values for the pIC50 on ALK and on JAK2 were below 5.00 and above 7.00, respectively.

Regarding `CN1CCN(C(=O)c2cccc(Nc3ncc4ccc(-c5cccc(S(=O)(=O)NC(C)(C)C)c5)n4n3)c2)CC1` [Example 891, N-tert-Butyl-3-{2-[3-(4-methyl-piperazine-1-carbonyl)-phenylamino]-pyrrolo[2,1-f][1,2,4]triazin-7-yl}-benzenesulfonamide], the values for the pIC50 at ALK and on JAK2 were 6.00 to 7.00 and above 7.00, respectively.

As to `CC(C)(C)NS(=O)(=O)c1cccc(-c2ccc3cnc(Nc4cccc(C(=O)N5CCOCC5)c4)nn23)c1` [Example 892, N-tert-Butyl-3-{2-[3-(morpholine-4-carbonyl)-phenylamino]-pyrrolo[2,1-f][1,2,4]triazin-7-yl}-benzenesulfonamide], the pIC50 is 5.00 to 6.00 on ALK and above 7.00 on JAK2.

Regarding `CC(=O)Nc1cccc(Nc2ncc3ccc(-c4cccc(NCCS(C)(=O)=O)c4)n3n2)c1` [Example 893, N-(3-{7-[3-(2-Methanesulfonyl-ethylamino)-phenyl]-pyrrolo[2,1-f][1,2,4]triazin-2-ylamino}-phenyl)-acetamide], the pIC50 on ALK was 5.00 to 6.00; at JAK2, above 7.00.

`CN1CCN(c2cccc(Nc3ncc4ccc(-c5cccc(NCCS(C)(=O)=O)c5)n4n3)c2)CC1` [Example 894, {7-[3-(2-Methanesulfonyl-ethylamino)-phenyl]-pyrrolo[2,1-f][1,2,4]triazin-2-yl}-[3-(4-methyl-piperazin-1-yl)-phenyl]-amine]: the pIC50 at ALK is 6.00 to 7.00; on JAK2, above 7.00.

As for `CC(C)(C)NS(=O)(=O)c1cccc(-c2ccc3cnc(Nc4cccc(C(=O)O)c4)nn23)c1` [Example 895, 3-[7-(3-tert-Butylsulfamoyl-phenyl)-pyrrolo[2,1-f][1,2,4]triazin-2-ylamino]-benzoic acid], the values for the pIC50 at ALK and on JAK2 were 5.00 to 6.00 and above 7.00, respectively.

For the compound `CC(C)(C)NS(=O)(=O)c1cccc(-c2ccc3cnc(Nc4cccc(N)c4)nn23)c1` [Example 896, 3-[2-(3-Amino-phenylamino)-pyrrolo[2,1-f][1,2,4]triazin-7-yl]-N-tert-butyl-benzenesulfonamide], the figures for the pIC50 at ALK and on JAK2 were 6.00 to 7.00 and above 7.00, respectively.

As for `CN(C)CC(=O)Nc1cccc(Nc2ncc3ccc(-c4cccc(S(=O)(=O)NC(C)(C)C)c4)n3n2)c1` [Example 897, N-{3-[7-(3-tert-Butylsulfamoyl-phenyl)-pyrrolo[2,1-f][1,2,4]triazin-2-ylamino]-phenyl}-2-dimethylamino-acetamide], the pIC50 at ALK and on JAK2 was above 7.00 each time.

On to `COc1ccc(-c2ccc3cnc(Nc4cccc(N)c4)nn23)cn1` [Example 898, N-[7-(6-Methoxy-pyridin-3-yl)-pyrrolo[2,1-f][1,2,4]triazin-2-yl]-benzene-1,3-diamine], for which the pIC50 on ALK was 5.00 to 6.00; at JAK2, above 7.00.

As to `COc1ccc(-c2ccc3cnc(Nc4cccc(NC(=O)CN(C)C)c4)nn23)cn1` [Example 899, 2-Dimethylamino-N-{3-[7-(6-methoxy-pyridin-3-yl)-pyrrolo[2,1-f][1,2,4]triazin-2-ylamino]-phenyl}-acetamide], the pIC50 at ALK was 6.00 to 7.00; at JAK2, above 7.00.

In the case of `COc1ccc(-c2ccc3cnc(Nc4cccc(NC(=O)[C@@H](C)OC)c4)nn23)cn1` [Example 900, (R)-2-Methoxy-N-{3-[7-(6-methoxy-pyridin-3-yl)-pyrrolo[2,1-f][1,2,4]triazin-2-ylamino]-phenyl}-propionamide], the pIC50 at ALK was 6.00 to 7.00; on JAK2, above 7.00.

With `CCNC(=O)Nc1cccc(Nc2ncc3ccc(-c4ccc(OC)nc4)n3n2)c1` [Example 901, 1-Ethyl-3-{3-[7-(6-methoxy-pyridin-3-yl)-pyrrolo[2,1-f][1,2,4]triazin-2-ylamino]-phenyl}-urea], the pIC50 at ALK is below 5.00; on JAK2 it was above 7.00.

`CN1CCC(c2ccc(Nc3ncc4ccc(-c5cccc(S(=O)(=O)N(C)C)c5)n4n3)cc2)CC1` [Example 902, N,N-Dimethyl-3-{2-[4-(1-methyl-piperidin-4-yl)phenylamino]-pyrrolo[2,1-f][1,2,4]triazin-7-yl}-benzenesulfonamide]: the pIC50 was 6.00 to 7.00 at ALK and above 7.00 at JAK2.

For `CN1CCC(c2ccc(Nc3ncc4ccc(-c5cccc(S(=O)(=O)N6CCCC6)c5)n4n3)cc2)CC1` [Example 903, [4-(1-Methyl-piperidin-4-yl)-phenyl]-{7-[3-(pyrrolidine-1-sulfonyl)-phenyl]-pyrrolo[2,1-f][1,2,4]triazin-2-yl}-amine], the values for the pIC50 at ALK and at JAK2 were 6.00 to 7.00 and above 7.00, respectively.

In the case of `CN1CCC(c2ccc(Nc3ncc4ccc(-c5cccc(S(=O)(=O)NCc6ccccc6)c5)n4n3)cc2)CC1` [Example 904, N-Benzyl-3-{2-[4-(1-methyl-piperidin-4-yl)-phenylamino]-pyrrolo[2,1-f][1,2,4]triazin-7-yl}-benzenesulfonamide], the pIC50 was 6.00 to 7.00 on ALK and above 7.00 at JAK2.

As for `CN1CCC(c2ccc(Nc3ncc4ccc(-c5cccc(S(=O)(=O)N6CCCCC6)c5)n4n3)cc2)CC1` [Example 905, [4-(1-Methyl-piperidin-4-yl)-phenyl]-{7-[3-(piperidine-1-sulfonyl)-phenyl]-pyrrolo[2,1-f][1,2,4]triazin-2-yl}-amine], the pIC50 at ALK is 6.00 to 7.00; on JAK2, above 7.00.
